According to ChEMBL document CHEMBL4425117 (Bioorg Med Chem Lett, 2016):

Legend:
[1] = biological target: T1, Endothelin-1 receptor (Homo sapiens, UniProt P25101); test: Displacement of radioligand from ETA receptor (unknown origin) expressed in fall armyworm sf9 cell membranes
T1 sequence (P25101 whole entry): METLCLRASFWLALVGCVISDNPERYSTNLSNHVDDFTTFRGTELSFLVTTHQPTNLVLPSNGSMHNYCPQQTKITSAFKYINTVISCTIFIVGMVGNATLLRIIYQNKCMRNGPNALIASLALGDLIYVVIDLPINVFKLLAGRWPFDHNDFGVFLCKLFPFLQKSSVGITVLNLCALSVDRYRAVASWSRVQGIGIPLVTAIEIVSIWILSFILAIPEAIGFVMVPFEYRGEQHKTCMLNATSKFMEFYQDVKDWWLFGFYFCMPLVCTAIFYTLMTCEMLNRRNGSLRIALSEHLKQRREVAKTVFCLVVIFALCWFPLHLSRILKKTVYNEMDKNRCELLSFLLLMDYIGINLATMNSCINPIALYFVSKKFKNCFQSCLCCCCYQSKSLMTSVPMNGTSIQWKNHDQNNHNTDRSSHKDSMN

[2] = biological target: T2, Endothelin receptor type B (Homo sapiens, UniProt P24530); test: Displacement of radioligand from ETB receptor in human placenta cell membranes
T2 sequence (P24530 whole entry): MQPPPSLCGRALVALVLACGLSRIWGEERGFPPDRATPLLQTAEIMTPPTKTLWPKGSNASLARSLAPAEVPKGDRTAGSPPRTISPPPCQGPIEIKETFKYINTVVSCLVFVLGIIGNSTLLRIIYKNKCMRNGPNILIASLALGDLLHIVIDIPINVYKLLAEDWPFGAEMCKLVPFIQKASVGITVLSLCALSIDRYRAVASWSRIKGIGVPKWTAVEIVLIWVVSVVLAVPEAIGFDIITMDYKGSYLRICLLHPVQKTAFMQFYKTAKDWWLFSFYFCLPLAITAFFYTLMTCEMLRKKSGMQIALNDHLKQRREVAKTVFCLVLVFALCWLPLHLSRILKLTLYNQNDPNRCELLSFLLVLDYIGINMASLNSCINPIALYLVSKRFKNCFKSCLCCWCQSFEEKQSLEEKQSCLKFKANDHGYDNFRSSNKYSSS

[3] = biological target: T3, Endothelin-1 receptor (Rattus norvegicus, UniProt P26684); test: Antagonist activity at rat aortic ring ETA receptor in presence of ET1; conditions: read-out: pA2 (converted)
T3 sequence (P26684 whole entry): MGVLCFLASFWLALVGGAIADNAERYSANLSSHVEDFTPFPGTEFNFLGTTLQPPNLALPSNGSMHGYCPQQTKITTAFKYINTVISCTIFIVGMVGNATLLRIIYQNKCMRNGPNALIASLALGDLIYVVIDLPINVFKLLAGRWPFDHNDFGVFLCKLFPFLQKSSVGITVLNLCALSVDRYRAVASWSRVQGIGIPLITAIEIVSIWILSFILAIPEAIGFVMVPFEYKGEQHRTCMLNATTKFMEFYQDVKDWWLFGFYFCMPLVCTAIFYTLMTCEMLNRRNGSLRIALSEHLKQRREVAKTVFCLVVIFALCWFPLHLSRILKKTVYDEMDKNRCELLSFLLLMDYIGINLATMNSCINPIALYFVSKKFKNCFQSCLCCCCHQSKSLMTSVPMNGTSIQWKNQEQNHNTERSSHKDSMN

[4] = biological target: T3, Endothelin-1 receptor; test: Displacement of 125I-ET1 from ETA receptor in rat A7R5 cells; assay type: cell-based
[5] = biological target: T1, Endothelin-1 receptor; test: Displacement of 125I-ET1 from ETA receptor (unknown origin) expressed in CHO cells; assay type: cell-based
[6] = biological target: T1, Endothelin-1 receptor; test: Antagonist activity at ETA receptor (unknown origin) in presence of ET1
[7] = biological target: T2, Endothelin receptor type B; test: Antagonist activity at ETB receptor (unknown origin) in presence of ET1
[8] = biological target: T1, Endothelin-1 receptor; test: Displacement of 125I-ET1 from human placenta cell membrane ETA receptor expressed in Baculovirus-infected insect cells
[9] = biological target: T1, Endothelin-1 receptor; test: Antagonist activity at ETA receptor (unknown origin)
[10] = biological target: T2, Endothelin receptor type B; test: Antagonist activity at ETB receptor (unknown origin)
[11] = Oral bioavailability in rat at 15 mg/kg; assay type: ADME, organism-based; conditions: in vivo
[12] = Oral bioavailability in dog at 15 mg/kg; assay type: ADME, organism-based, Canis lupus familiaris; conditions: in vivo
[13] = biological target: T2, Endothelin receptor type B; test: Antagonist activity at human ETB receptor expressed in CHO cells in presence of ET1; assay type: cell-based
[14] = biological target: T4, Endothelin receptor type B (Rattus norvegicus, UniProt P21451); test: Displacement of [125I]-ET1 from ETB receptor in rat cerebellum after 3 hrs by scintillation counting method; assay type: tissue-based
T4 sequence (P21451 whole entry): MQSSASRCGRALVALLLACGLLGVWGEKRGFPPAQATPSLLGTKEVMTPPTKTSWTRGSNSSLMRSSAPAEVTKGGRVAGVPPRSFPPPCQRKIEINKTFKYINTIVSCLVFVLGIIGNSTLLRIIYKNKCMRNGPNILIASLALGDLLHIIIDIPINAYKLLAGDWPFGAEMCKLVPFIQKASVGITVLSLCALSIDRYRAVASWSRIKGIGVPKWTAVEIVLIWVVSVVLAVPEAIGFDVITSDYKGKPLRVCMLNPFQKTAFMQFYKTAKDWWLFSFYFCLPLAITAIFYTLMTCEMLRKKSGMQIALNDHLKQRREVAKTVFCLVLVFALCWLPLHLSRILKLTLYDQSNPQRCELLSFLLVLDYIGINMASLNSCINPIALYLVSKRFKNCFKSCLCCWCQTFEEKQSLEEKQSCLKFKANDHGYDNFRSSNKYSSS

[15] = biological target: T1, Endothelin-1 receptor; test: Displacement of [125I]-ET-1 from human ETA receptor expressed in CHO cell membranes after 2 hrs by scintillation counting
[16] = Oral bioavailability in dog; assay type: ADME, organism-based, Canis lupus familiaris; conditions: in vivo
[17] = biological target: T5, Endothelin receptor type B (Sus scrofa, UniProt P35463); test: Displacement of 125I-ET1 from pig ETB receptor transfected in grivet COS7 cells; assay type: cell-based
T5 sequence (P35463 whole entry): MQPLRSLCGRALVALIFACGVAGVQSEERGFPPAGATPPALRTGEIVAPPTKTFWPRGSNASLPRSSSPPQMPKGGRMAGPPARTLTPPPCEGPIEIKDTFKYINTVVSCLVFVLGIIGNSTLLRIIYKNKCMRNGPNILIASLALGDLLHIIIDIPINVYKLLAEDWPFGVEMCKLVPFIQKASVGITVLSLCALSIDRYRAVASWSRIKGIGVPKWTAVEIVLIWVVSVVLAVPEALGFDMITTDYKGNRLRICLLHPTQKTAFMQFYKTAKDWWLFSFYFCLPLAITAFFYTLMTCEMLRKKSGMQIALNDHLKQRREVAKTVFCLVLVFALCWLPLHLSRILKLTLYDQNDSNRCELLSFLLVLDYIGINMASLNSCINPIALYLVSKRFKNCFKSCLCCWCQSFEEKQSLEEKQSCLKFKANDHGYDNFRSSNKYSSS

[18] = biological target: T2, Endothelin receptor type B; test: Displacement of [125I]-ET-1 from human ETB receptor expressed in CHO cell membranes after 2 hrs by scintillation counting
[19] = biological target: T4, Endothelin receptor type B; test: Displacement of 125I-ET1 from rat aortic ring ETB receptor
[20] = biological target: T1, Endothelin-1 receptor; test: Displacement of 125I-ET1 from human smooth muscle ETA receptor expressed in fall armyworm sf9 cell membranes
[21] = biological target: T1, Endothelin-1 receptor; test: Antagonist activity at human ETA receptor expressed in CHO cells in presence of ET1; assay type: cell-based
[22] = physchem
Description: Dissociation constant, pKa of the compound

SMILES: O=S(=O)(Nc1ncnc(OCCO)c1-c1ccc(Cl)cc1)c1ccc(C(F)(F)F)cc1
- IC50 [1]: 18000 nM
- IC50 [2]: 2000 nM
- Kb [3]: 1580 nM

SMILES: COc1ccccc1Oc1c(NS(=O)(=O)c2ccc(C(C)(C)C)cc2)nc(-c2ncccn2)[nH]c1=O
- IC50 [1]: 133000 nM

SMILES: CSc1cnc(OCCOc2ncnc(NS(=O)(=O)c3ccc(C(C)(C)C)cc3)c2-c2cc3ccccc3s2)nc1
- IC50 [4]: 0.026 nM

SMILES: CC(C)(C)c1ccc(S(=O)(=O)Nc2nc(-c3ncccn3)nc(OCCO)c2Oc2ccccc2O)cc1
- IC50 [1]: 26000 nM

SMILES: COc1ccccc1Oc1c(NS(=O)(=O)c2ccc(C)cn2)nc(-c2ccncc2)nc1OC [AVOSENTAN]
- IC50 [2]: 600 nM
- IC50 [5]: 1.4 nM
- IC50 [6]: 3.1 nM
- IC50 [7]: 1200 nM

SMILES: COc1ccccc1Oc1c(NS(=O)(=O)c2ccccc2)nc(-c2ncccn2)nc1OCCO
- IC50 [1]: 1500 nM

SMILES: Cc1ccc(-c2c(NS(=O)(=O)c3ccc(C(C)(C)C)cc3)ncnc2OCCO)cc1
- IC50 [8]: 1000 nM

SMILES: O=S(=O)(Nc1ncnc(OCCO)c1-c1ccc(Cl)cc1)c1ccc(Cl)cc1
- IC50 [1]: 10000 nM
- IC50 [2]: 8500 nM

SMILES: COc1ccccc1Oc1c(NS(=O)(=O)c2ccc(C(C)C)cc2)nc(C(F)(F)F)nc1OCCO
- IC50 [8]: 50 nM
- IC50 [9]: 26 nM
- IC50 [10]: 914 nM

SMILES: COc1ccccc1Oc1c(NS(=O)(=O)c2ccc(C(C)(C)C)cc2)nc(-c2ccccc2)nc1OCCO
- IC50 [1]: 800 nM
- Kb [3]: 126 nM

SMILES: Cc1cc2c(cc1CC(=O)c1sccc1S(=O)(=O)Nc1onc(C)c1Cl)OCO2 [SITAXENTAN]
- bioavailability [11]: 60 to 100%
- bioavailability [12]: 60 to 100%

SMILES: COc1ccccc1Oc1c(OCCO)nc(-c2ncccn2)nc1N(C)S(=O)(=O)c1ccc(C(C)(C)C)cc1
- IC50 [1]: > 100000 nM

SMILES: COc1ccccc1Oc1c(NS(=O)(=O)c2ccc(C(C)C)cn2)nc(-c2ccncc2)nc1OC
- IC50 [8]: 1.4 nM

SMILES: COc1ccccc1Oc1c(NS(=O)(=O)/C=C/c2ccccc2)nc(-c2ncccn2)nc1OCCO
- IC50 [4]: 1.6 nM

SMILES: COc1ccccc1Oc1c(NS(=O)(=O)c2ccc(C)cn2)nc(-c2ccnc(-c3nnn[nH]3)c2)nc1OCCO [CLAZOSENTAN]
- IC50 [2]: 175 nM
- IC50 [5]: 1.7 nM

SMILES: COc1ccccc1Oc1c(NS(=O)(=O)c2ccc(C(C)C)cn2)nc(-c2ccnc(-c3nnn[nH]3)c2)nc1OCCO [TEZOSENTAN]
- IC50 [2]: 21 nM
- IC50 [5]: 18 nM

SMILES: COc1ccccc1Oc1c(NS(=O)(=O)c2ccc(C(C)(C)C)cc2)nc(-c2ncccn2)nc1OCCO [BOSENTAN]
- Kb [3]: 39.8 nM

SMILES: COc1ccc(-c2nc(NS(=O)(=O)c3ccc(C(C)(C)C)cc3)c(Oc3ccccc3OC)c(OC[C@H](O)CO)n2)cc1
- IC50 [1]: 6800 nM
- IC50 [13]: 69 nM

SMILES: COCCOc1nc(-c2ncccn2)nc(NS(=O)(=O)CCc2ccccc2)c1Oc1ccccc1OC
- IC50 [4]: 3.6 nM

SMILES: COc1ccccc1Oc1c(NS(=O)(=O)CCc2ccccc2)nc(-c2ncccn2)nc1OCCO
- IC50 [9]: 25 nM

SMILES: COc1ccccc1Cc1c(NS(=O)(=O)c2ccc(C(C)(C)C)cc2)ncnc1OCCO
- IC50 [8]: 2000 nM

SMILES: COc1cccc(Oc2c(NS(=O)(=O)c3ccc(SC)cc3)cc(C(=O)Nc3ccccc3)cc2OCCO)c1
- IC50 [8]: > 100000 nM

SMILES: Cc1noc(NS(=O)(=O)c2ccccc2-c2ccc(-c3ncco3)cc2)c1C
- Ki [14]: 1900 nM

SMILES: COc1ccc(Cl)c(Oc2c(NS(=O)(=O)c3ccc(C(C)(C)C)cc3)nc(N3CCOCC3)nc2OCCO)c1
- IC50 [8]: 35 nM

SMILES: CCc1cc(C2=C(C(=O)O)N(c3ccccc3C(F)(F)F)S(=O)(=O)c3ccccc32)cc2c1OCO2 [FANDOSENTAN]
- IC50 [15]: 0.5 nM
- bioavailability [16]: 100%

SMILES: COc1ccccc1Oc1c(NS(=O)(=O)c2ccc(C(C)(C)C)cc2)nc(N2CCOCC2)nc1OCCC(=O)Nc1ccccc1C(C)C
- IC50 [4]: 63 nM
- IC50 [17]: 0.86 nM

SMILES: COc1ccccc1Oc1c(NS(=O)(=O)c2ccc(C(C)C)cn2)nc(N2CCOCC2)nc1OCC#CCOC(=O)c1ccccn1
- Kb [3]: 20 nM
- IC50 [15]: 1 nM
- IC50 [18]: 42 nM

SMILES: COc1ccccc1Oc1c(NS(=O)(=O)c2ccc(C(C)(C)C)cc2)ncnc1OCCO
- IC50 [1]: 1500 nM
- Kb [3]: 955 nM

SMILES: COc1cccc(Oc2c(NS(=O)(=O)c3ccc(C(C)(C)C)cc3)ncnc2OCCO)c1
- IC50 [19]: 1000 nM
- IC50 [20]: 220 nM

SMILES: Cc1ccc(-c2c(NS(=O)(=O)c3ccc(C(C)(C)CO)cc3)ncnc2OCCOc2ncc(Br)cn2)cc1
- IC50 [17]: 41 nM

SMILES: CCCNS(=O)(=O)Nc1ncnc(OCCOc2ncc(Br)cn2)c1-c1ccc(Br)cc1
- IC50 [21]: 3.4 nM
- pKa [22]: 6.2
